Measurements as given in patent US20130216590A1, “TOPICAL ANTIVIRAL FORMULATIONS FOR PREVENTION OF TRANSMISSION OF HSV-2” (priority 2010, published 2013).
Converted amounts (≈) assume the structure as drawn. Like-named read-outs stand apart in the source and are kept apart here.

What was measured:
Format in all cases: cell-based
[1] = tested on: thymidine kinase-deficient HSV-1 clinical isolates; experiment: microbe, parasite or virus in culture; conditions: Human alphaherpesvirus 1, Fibroblast
[2] = tested on: HSV-2; experiment: Herpes virus infection of primary monocyte/macrophage (M/M) cell cultures
Procedure: Human peripheral blood mononuclear cells (PBMCs) were obtained from the blood of healthy seronegative donors by Ficoll-Hypaque density gradient centrifugation. […] Monocyte/macrophage (M/M) cells were separated by adherence onto plastic. […] African green monkey fibroblastoid kidney (Vero) cells highly sensitive to the cytopathic effect of HSV-2 were grown in RPMI medium supplemented with 10% heat inactivated FCS and were used in infectious virus titration assays.
Macrophage cultures were then infected with HSV-2 (100 CCID50) in the presence of the test compounds. After 2 hrs virus adsorption, the cultures were extensively washed to remove any residual virus particles. Fresh culture medium and compounds, at the indicated concentrations, were then added to the cultures. […] Appropriate positive (infected but not treated M/M) and mock-infected negative (uninfected and untreated M/M) controls were run for each experiment as well. All assays were performed in triplicate. […] Therefore, the potential inhibitory effect of the compounds on the replication of HSV-2 was evaluated 6 days after infection. The amount of infectious virus in the supernatants was determined by a classical limited dilution assay on Vero cell cultures. The titers of produced virus were calculated according to the Reed and Muench method and expressed as 50% tissue culture infective dose per ml (TCID50/ml).
The inhibition capacity was expressed in % and calculated considering as value 100 being the virus production in virus-infected untreated cultures.

[3] = tested on: HIV-1 (NL4.3); experiment: Co-infection of TZM-bl cells with HIV-1 and HSV-2: LTR-driven luciferase; conditions: presence or absence of an ongoing HSV-2 infection; data not shown
Procedure: The TZM-bl cell line is derived from HeLa cells and expresses high levels of CD4, CCR5 and CXCR4. In addition, this cell line is stably transduced with a LTR-driven firefly luciferase and E. coli-galactosidase gene (15). In a 96-well tray, 10,000 TZM-bl cells were seeded on day 1. […] Next, 100 μl of a virus suspension containing either HIV-1 (NL4.3), HSV-2 (G) or both viruses together was administered. Two to three days post infection, HIV-1 infection was monitored based on the determination of luciferase activity. For this means, 100 μl of culture supernatant was removed and 100 μl of Bright-Glo Luciferase Assay Substrate (Promega, Madison, USA) was added. The luminescence signal was measured using the Safire 2 microtiter plate reader (Tecan, Männedorf, Switzerland). A control condition containing only mock-infected cells was also included to measure the background luminescence levels. Three days post infection, HSV-2-induced cytopathicity was recorded microscopically based on giant cell formation.

[4] = tested on: HSV-1 (KOS); experiment: Organotypic epithelial raft cultures infected with HSV-1
Procedure: For the preparation of epidermal equivalents, a collagen matrix solution was made with collagen mixed on ice with 10-fold concentrated HAM's F12 media, 10-fold reconstitution buffer and Swiss 3T3 J2 fibroblasts. One milliliter of the collagen matrix solution was poured into the wells of 24-well microtiter plates. After gel equilibration with 1 ml of growth medium overnight at 37° C., 2.5×10^5 PHK cells were seeded on the top of the gels and maintained submerged for 24-48 hours. The collagen rafts were raised and placed onto stainless-steel grids at the interface between air and liquid culture medium. The growth medium was a mixture of ⅓ HAM F12 and ⅔ Dulbecco's modified Eagle's medium, with the same supplements as used for the Keratinocyte-SFM. Epithelial cells were allowed to stratify, the medium being replaced every 2-3 days. For the evaluation of the antiviral effects of the compounds in the raft system, two series of rafts were run in parallel, one for histological examination and the other one for quantification of viral production by a plaque reduction assay. Rafts were infected with 5,000 PFU of HSV-1 (KOS) or […] strains after 10 days post-lifting and then the medium was replaced by medium containing different dilutions of the compounds. The growth medium containing the different concentrations of the compounds was changed two days later and 3 days later (after 15 days of differentiation), one series of rafts was fixed in 10% buffered formalin, embedded in paraffin and stained with hematoxylin and eosin for histological evaluation. Another series of rafts was used to quantify virus production. For that purpose, each raft was frozen in 3 ml phosphate buffer saline (PBS) and thawed to release the virus from the infected epithelium. Supernatants were clarified by centrifugation at 1,800 rpm and titrated by a plaque assay in HEL cell cultures. Virus production in each raft was then calculated. Two rafts were used for each drug concentration to determine the effects of the compounds on virus yield.

[5] = tested on: HSV-2 strain MS (HSV-2MS); experiment: Human ex vivo tonsillar tissue, HSV DNA release by real-time PCR

SMILES: C[C@H](Cn1cnc2c(N)ncnc21)OCP(=O)(O)O [tenofovir, (R)-9-(2-phosphonylmethoxypropyl)adenine]
- EC50 ([1]; read-out: mean EC50): ≥ 166 µg/mL
- EC50 ([1]; read-out: range of EC50): ≥ 117 µg/mL
- CPE ([2]; 1 μg/ml or 0.2 μg/ml, day 6): 70-80%
- virus titer in supernatants ([2]; 1 μg/ml or 0.2 μg/ml, day 6): 2.5×10^5 TCID50/ml
- visible CPE ([2]; 5 μg/ml, day 6): 30%
- visible CPE ([2]; 20 μg/ml, day 6): ~5%
- virus titers in the culture supernatants versus untreated controls ([2]; 20 and 5 μg/ml, day 6): more than one log lower
- virus replication ([2]; 500 and 100 μg/ml, day 6 post virus infection): completely suppressed virus replication
- suppression of HIV-1 [3]: equally suppressed
- protection of the epithelium from HSV-1-induced cytopathic effect ([4]; 20 μg/ml): full destruction
- protection of the epithelium from HSV-1-induced cytopathic effect ([4]; 50 μg/ml): partial protection
- reduction in virus yield ([4]; HSV-1, 50 μg/ml): 0.81 logs
- log reduction in virus production (PFU) per raft ([4]; HSV-1, 200 μg/ml): 2.6 log
- concentration giving complete protection from virus-induced cytopathic effect ([4]; reference HSV-1 laboratory strain): 200 µg/mL
- reduction of replication compared to infected donor matched-untreated tissue ([5]; 66 μg/ml, HSV-2MS): 89±2%
- release of viral DNA in culture medium ([5]; 66 μg/ml, day 9 post infection, IQR 5.7-6.1, untreated 7.3): 5.8 log10 DNA copies/ml
- EC50 ([5]; Human alphaherpesvirus 2, read-out: EC50, suppression of replication): 19 µg/mL (≈ 66.2 µM)
